The source of these data is ChEMBL document CHEMBL1201862, “PubChem BioAssay data set” (2004).

Structures are written as SMILES.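 Method: 48-hour compound exposure of cells in 96-well plates, five concentrations, linear interpolation of endpoints. Here, GI50 denotes the concentration required for 50% inhibition of growth.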 Calls of active or inactive are those of the source. Cut-off read from the data, not from the text of the source: active = GI50 up to about 1.1 µM and inactive = higher.

Some test systems named below: NCI-H23; CAKI-1; COLO 205; RXF 393; UACC-257; KM12; NCI-H460; HCC 2998; NCI-H522; SF-268; HOP-62; M19-MEL; HCT-15; NCI-H226; HOP-18; DMS-114; EKVX; SNB-75; HCT-116; SK-MEL-28.
Common to all, as to assay: DTP human tumour cell line panel, 48 h

With `Nc1nc(Cl)nc2c1ncn2C1CC(O)C(CO)O1` (stereo not given), the GI50 (usually the concentration at which growth is held to half of that of the control) with NCI-H23 was 592 nM (active); with CAKI-1, 665 nM (active); with COLO 205 it was 33400 nM (inactive); with RXF 393, 24900 nM (inactive); with UACC-257, 1760 nM (inactive); in the experiment with KM12, > 100000 nM (inactive). Further, the GI50 in the experiment on NCI-H460 is 7280 nM (inactive); in the experiment with HCC 2998, 19300 nM (inactive); in the experiment on NCI-H522, 25500 nM (inactive); in the experiment on SF-268, 26400 nM (inactive); in the experiment with HOP-62 it was 330 nM (active); in the experiment on M19-MEL, > 30300 nM (inactive). Further, the GI50 in the experiment on HCT-15 was 45900 nM; with NCI-H226, 16700 nM (inactive); with HOP-18 it was > 100000 nM (inactive); in the experiment on DMS-114 it was 228 nM (active); in the experiment on EKVX, 1210 nM (inactive); in the experiment with SNB-75, 36600 nM (inactive). For the same molecule, the GI50 in the experiment on HCT-116 is 4040 nM (inactive); in the experiment with SK-MEL-28, 43300 nM (inactive).

Take `C=C1C(=O)O[C@@H]2[C@H](O)[C@@H](C)[C@@H]3C=CC(=O)[C@@]3(C)[C@@H](OC(=O)/C(C)=C/C)[C@H]12`: the GI50 in the experiment on NCI-H23 is 845 nM (active); in the experiment with CAKI-1, 782 nM (active); in the experiment on COLO 205, 344 nM (active); in the experiment on RXF 393, 630 nM (active); in the experiment with UACC-257 it was 718 nM (active); in the experiment with KM12, 1010 nM (active). In addition, the GI50 in the experiment with NCI-H460 was 412 nM (active); with HCC 2998, 656 nM (active); in the experiment on NCI-H522, 88.9 nM (active); in the experiment with SF-268, 437 nM (active); in the experiment with HOP-62 it was 7460 nM (inactive); in the experiment with M19-MEL, 363 nM (active). For the same molecule, the GI50 with HCT-15 was 377 nM; in the experiment with NCI-H226, 1120 nM (inactive); in the experiment on HOP-18, 1900 nM (inactive); with DMS-114 it was 498 nM (active); with EKVX, 774 nM (active); with SNB-75, 2030 nM (inactive). In addition, the GI50 with HCT-116 is 300 nM (active); with SK-MEL-28 it was 344 nM (active).

For the molecule `CC(C)(C)c1ccc2c(c1)OP1(Oc3c(Cl)cc(Cl)c4cccnc34)(O2)Oc2ccc(C(C)(C)C)cc2O1`, the GI50 is 6380 nM (inactive) with NCI-H23; 3780 nM (inactive) with CAKI-1; 13400 nM (inactive) in the experiment on COLO 205; 13300 nM (inactive) in the experiment on RXF 393; 4030 nM (inactive) in the experiment with UACC-257; 6870 nM (inactive) with KM12. Besides, the GI50 in the experiment on NCI-H460 is 3800 nM (inactive); with HCC 2998, 11300 nM (inactive); in the experiment on NCI-H522, 2900 nM (inactive); with SF-268, 7160 nM (inactive); in the experiment on HOP-62 it was 5010 nM (inactive); in the experiment with M19-MEL, 3120 nM (inactive). Moreover, the GI50 in the experiment on HCT-15 was 4530 nM; with NCI-H226, 8970 nM (inactive); in the experiment with HOP-18, 9980 nM (inactive); in the experiment with DMS-114 it was 2620 nM (inactive); with EKVX, 5160 nM (inactive); in the experiment with SNB-75 it was 15500 nM (inactive). The GI50 was 5220 nM (inactive) in the experiment on HCT-116 and 11300 nM (inactive) in the experiment on SK-MEL-28.

Turning to `COc1cc2c(cc1O)N=C[C@@H]1CC[C@@H](O)N1C2=O.COc1cc2c(cc1O)N=C[C@@H]1CC[C@H](O)N1C2=O`, the GI50 was 916 nM (active) in the experiment with NCI-H23; 607 nM (active) in the experiment on CAKI-1; 738 nM (active) with COLO 205; 281 nM (active) in the experiment on RXF 393; 1600 nM (inactive) with UACC-257; 1380 nM (inactive) in the experiment on KM12. In addition, the GI50 with NCI-H460 is 2540 nM (inactive); in the experiment with HCC 2998, 863 nM (active); in the experiment with NCI-H522 it was 159 nM (active); with SF-268, 735 nM (active); in the experiment with HOP-62 it was 631 nM (active); in the experiment on M19-MEL it was 1200 nM (inactive). In addition, the GI50 in the experiment with HCT-15 is 740 nM; with NCI-H226, 525 nM (active); with HOP-18, 863 nM (active); in the experiment with DMS-114, 522 nM (active); in the experiment on EKVX, 1870 nM (inactive); with SNB-75, 1020 nM (active). Moreover, the GI50 was 1320 nM (inactive) in the experiment with HCT-116 and 977 nM (active) with SK-MEL-28.
